The test has as its system hiPSC-CM cells. In words: Impedance measurement of cardiomyocyte beating on the microfluidic device. Format: cell-based, human. Particulars: 1 μM verapamil, after 10 minutes of treatment, hiPSC-CM on porous membrane. The method, then: In one embodiment, human induced pluripotent stem cell-derived cardiomyocytes (hiPSC-CM) were cultured directly on the PET membrane of the microfluidic device.
Cells in this example were trapped in the region of interest within the device using dielectrophoretic cell capture, directing cells from the microfluidic channel to the electrode. In this example, the entire electrode was covered with cells in increasing density from around 1 to 3 minutes. The following parameters for dielectrophoresis were used in this example: 4-6 Vpp, 12 MHz, […] μl min-1.
In one embodiment, hiPSC-CM cells are captured on one side of the porous membrane as in Example 1. The cardiomyocytes are treated with 1 μM verapamil, a Ca^2+ channel blocker used for treating arrhythmia.

This is an account of results in patent publication US20250369954A1, “PLATFORM AND METHOD TO CO[…] FUN[…] CARD[…] OTHER CELLS ON BOTH SIDES OF A POROUS MEMBRANE” (Government of the United States of America, as represented …, priority 2024, published 2025).

Regarding `COc1ccc(CCN(C)CCCC(C#N)(c2ccc(OC)c(OC)c2)C(C)C)cc1OC` (stereo not shown) [verapamil], the “effect on cardiomyocyte beating (change in impedance)” value is “cessation of cardiomyocyte beating”.
